Here are results for 17 compounds from patent US8901116B2, “Method for treating pain, anxiety or depression using carbamoyloxy alkanoyl piperazine compound” (SK Biopharmaceuticals Co., Ltd., priority 2007, dated 2014).

Counter-ions that a name gives are not always drawn.

Holding throughout (format): in vivo
The subject of assay [1] is male ICR mouse. The experiment in a line: Head twitch potentiation induced by 5-HTP (5-HTP potentiation test) in mouse. Particulars: po, 0.5 h, p.o, 5-HTP 80 mg/kg + Carbidopa 25 mg/kg i.p. 30 minutes after dosing, head twitches counted for 2 minutes, negative = 5-HT2A antagonist, read-out: 5-HTP Potentiation Increase rate in Head Twitch No. Here is the method: When 5-hydroxy-L-tryptophan (5-HTP) is administered into a mouse, a head twitch phenomenon is observed since serotonin is increasingly secreted in the mouse. […] By using this principle, it is possible to search an effect of the representative antidepressant agent. A test material dissolved in a suitable vehicle was orally administered to a male ICR mouse weighing 20 to 25 g at an amount of 30 mg/kg. After 30 minutes of the oral administration, 5-HTP (80 mg/kg) and 5-HTP peripheral decarbozylase inhibitor ‘Carbidopa’ (25 mg/kg) were intraperitoneally administered to the mouse. After 30 minutes of the intraperitoneal administration, the mouse was put into an observation cage, and head twitches of the mouse were counted for 2 minutes. The anti-depression effect of the test material is represented by the ‘Increase rate in Head Twitch No.’ {[(Head Twitch No. of Test material-administered group−Head Twitch No. of vehicle-administered group)/(Head Twitch No. of vehicle-administered group)]×100%}. […] In addition to the selective serotonin reuptake inhibitor (SSRI) that has been widely used as an antidepressant agent in the clinical fields, it was tested that 5-HT2A antagonists such as nefazodone and trazodone also have an antidepressant effect.

Assay [2] has as its system male ICR mouse. Kind of assay: Elevated plus maze (EPM) test in mouse. Conditions: po, p.o, 1 hour after dosing, 5 minutes observation, read-out: Elevated Plus Maze Change index in Open-Arm Time. The text has this:
Elevated plus maze (EPM) is one of representative models that examine an anti-anxiety activity of a test material. Equipment used for an EPM test has a crossroad shape raised in a high position off the ground, and is configured in such a cliff shape that both sides of one road are protected with high walls and the other road is free from the wall. Among them, the road in the cliff shape is referred to as an ‘open arm,’ and the road protected by the walls is referred to as a ‘close arm.’ In this case, a level of the anxiety of a mouse may be measured by determining in which arm the mouse stays longer. In general, the mouse stays longer in the close arm than the open arm, but a mouse treated with a medicine showing an anti-anxiety effect stays relatively longer in the open arm. A test material dissolved in a suitable vehicle was orally administered to a male ICR mouse weighing 20 to 25 g at an amount of 10 mg/kg. After 1 hour of the oral administration, the mouse was put on the center of an EPM equipment to measure how long the mouse stays in the open arm within a time range of 5 minutes. The anti-anxiety effect of the test material is represented by the ‘Change index in Open-Arm Time’ {[(open arm duration in test material-administered group−open arm duration in vehicle-administered group)/(open arm duration in vehicle administered group)]×100%}.

Assay [3] concerns male ICR mouse. Kind of assay: Hot plate test in mouse. Conditions: po, p.o, 1 hour after dosing, hot plate 55° C., read-out: Hot Plate Test Increase in latency of avoidance response. The method, then: A hot plate test is one of representative models for measuring an analgesic effect of drugs. A test material dissolved in a suitable vehicle was orally administered to a male ICR mouse weighing 25 to 30 g at an amount of 30 mg/kg. After 1 hour of the oral administration, the mouse was put on a hot plate (55° C.). A latency was recorded from the time right after a mouse is put on a hot plate to the time when avoidance responses (flinching, licking, jumping, etc.) to pain are observed from forefeet or rear legs of the mouse. The analgesic effect of the test material is represented by the ‘Increase in latency of avoidance response’ {[(Latency of avoidance response to pain of Test material-administered group−Latency of avoidance response to pain of vehicle-administered group)/(Latency of avoidance response to pain of Solvent-administered group)]×100%}.
In general terms: In hot-plate and tail-flick tests a longer latency is read as antinociception.

In assay [4] the test system is male ICR mouse. The experiment in a line: Acetic acid-induced writhing test in mouse. Conditions: po, p.o, acetic acid i.p. 1 hour after dosing, writhing counted for 10 minutes, read-out: Writhing Test Suppression of pain response. The method, then:
An acetic acid-induced writhing test is one of models for measuring an analgesic effect of drugs. A test material dissolved in a suitable vehicle was orally administered to a male ICR mouse weighing 30 to 35 g at an amount of 10 mg/kg. After 1 hour of the oral administration, […] of an aqueous 0.8% acetic acid solution was intraperitoneally injected into the male ICR mouse to induce the abdominal pain of the male ICR mouse. Right after the administration of acetic acid, the male ICR mouse was put into an empty cage, and the number of writhing behaviors of the mice was counted for 10 minutes. The term “writhing” represents a reflex action in which the mouse overtly extends its abdomen by stretching its hind legs due to the abdominal pain. The analgesic effect of the test material is represented by the ‘suppression of pain response’ {[(Writhing number of vehicle-administered group−Writhing number of Test material—administered group)/(Writhing number of Solvent-administered group)]×100%}.
(Writhing tests count abdominal constrictions after an irritant is injected.)

Regarding `COc1ccc(N2CCN(C(=O)C[C@H](OC(N)=O)c3ccccc3)CC2)cc1OC` [Example 65, (S)-carbamic acid 3-[4-(3,4-dimethoxy-phenyl)-piperazin-1-yl]-3-oxo-1-phenyl-propyl ester], the change in vivo at 30 mg/kg in the assay on male ICR mouse [1] was 91.6%; in the assay with male ICR mouse [3] it was 38.6%. Also, in the assay with male ICR mouse [2], the change in vivo at 10 mg/kg is 74.7%.
For `NC(=O)OC(CC(=O)N1CCN(c2ccccc2)CC1)c1ccc(Cl)c(Cl)c1` (centres unmarked) [Example 53, carbamic acid 1-(3,4-dichloro-phenyl)-3-oxo-3-(4-phenyl-piperazin-1-yl)-propyl ester], the change in vivo at 30 mg/kg came out at 50% in the assay with male ICR mouse [1] and 10.6% in the assay on male ICR mouse [3]. For the same compound, in the assay with male ICR mouse [2], the change in vivo at 10 mg/kg is -17.7%. Further, the inhibition in vivo at 10 mg/kg in the assay with male ICR mouse [4] is 28.5%.
In the case of `NC(=O)OC(CC(=O)N1CCN(c2ccccc2)CC1)c1ccc(F)c(F)c1` (centres unmarked) [Example 60, carbamic acid 1-(3,4-difluoro-phenyl)-3-oxo-3-(4-phenyl-piperazin-1-yl)-propyl ester], the figures for the change in vivo at 30 mg/kg in the assay on male ICR mouse [1] and in the assay on male ICR mouse [3] were -23.5% and 17.2%, respectively. Besides, the change in vivo at 10 mg/kg in the assay with male ICR mouse [2] came to 21.3%. Besides, in the assay on male ICR mouse [4], the inhibition in vivo at 10 mg/kg was determined as 28%.
Turning to `COc1ccc(N2CCN(C(=O)CC(OC(=O)N(C)C)c3ccccc3)CC2)cc1` (centres unmarked) [Example 19, dimethyl-carbamic acid 3-[4-(4-methoxy-phenyl)-piperazin-1-yl]-3-oxo-1-phenyl-propyl ester], the change in vivo at 30 mg/kg was found to be 60% in the assay on male ICR mouse [1] and 49.4% in the assay with male ICR mouse [3]. In the assay on male ICR mouse [2], the change in vivo at 10 mg/kg was 0%. Further, the inhibition in vivo at 10 mg/kg in the assay with male ICR mouse [4] was determined as 34.2%.
As to `NC(=O)OC(CC(=O)N1CCN(c2cccc(Cl)c2Cl)CC1)c1ccccc1` (centres unmarked) [Example 12, carbamic acid 3-[4-(2,3-dichloro-phenyl)-piperazin-1-yl]-3-oxo-1-phenyl-propyl ester], the change in vivo at 30 mg/kg with male ICR mouse [1] came out at 10%; with male ICR mouse [3], 46.8%. Further, the change in vivo at 10 mg/kg in the assay on male ICR mouse [2] worked out at 41.1%. For the same compound, in the assay with male ICR mouse [4], the inhibition in vivo at 10 mg/kg is 37%.
The like results for `NC(=O)OC(CC(=O)N1CCN(C(c2ccc(F)cc2)c2ccc(F)cc2)CC1)c1ccccc1` (centres unmarked) [Example 21, carbamic acid 3-{4-[bis-(4-fluoro-phenyl)-methyl]-piperazin-1-yl}-3-oxo-1-phenyl-propyl ester] were, in that order, -7%, 51.4%, 67.5% and 32.5%.
The like results for `NC(=O)OC(CC(=O)N1CCN(c2cccc(F)c2)CC1)c1ccccc1` (centres unmarked) [Example 30, carbamic acid 3-[4-(3-fluoro-phenyl)-piperazin-1-yl]-3-oxo-1-phenyl-propyl ester] were, in that order, 40%, 27.1%, 102% and 9.2%.
With `NC(=O)OC(CC(=O)N1CCN(c2ccccc2)CC1)c1ccc(Cl)cc1Cl` (centres unmarked) [Example 56, carbamic acid 1-(2,4-dichloro-phenyl)-3-oxo-3-(4-phenyl-piperazin-1-yl)-propyl ester], the change in vivo at 30 mg/kg worked out at 40% in the assay with male ICR mouse [1] and 11.8% with male ICR mouse [3]. Also, in the assay on male ICR mouse [2], the change in vivo at 10 mg/kg was determined as 23.9%. The inhibition in vivo at 10 mg/kg in the assay on male ICR mouse [4] amounted to 23.3%.
Turning to `NC(=O)OC(CC(=O)N1CCN(c2cnc3ccccc3n2)CC1)c1ccccc1` (centres unmarked) [Example 22, carbamic acid 3-oxo-1-phenyl-3-(4-quinoxalin-2-yl-piperazin-1-yl)-propyl ester], the change in vivo at 30 mg/kg in the assay on male ICR mouse [1] stood at 3.9%; with male ICR mouse [3], 38%. Also, in the assay on male ICR mouse [2], the change in vivo at 10 mg/kg was -21.2%. Further, the inhibition in vivo at 10 mg/kg in the assay on male ICR mouse [4] was 29.4%.
On to `NC(=O)OC(CC(=O)N1CCN(c2ccccc2)CC1)c1cccc(Cl)c1` (centres unmarked) [Example 51, carbamic acid 1-(3-chloro-phenyl)-3-oxo-3-(4-phenyl-piperazin-1-yl)-propyl ester], for which the change in vivo at 30 mg/kg in the assay with male ICR mouse [1] was 40.3%; with male ICR mouse [3], 29.2%. Besides, the change in vivo at 10 mg/kg in the assay on male ICR mouse [2] is -0.7%. Also, the inhibition in vivo at 10 mg/kg with male ICR mouse [4] came to 50.8%.
`NC(=O)O[C@@H](CC(=O)N1CCN(c2ccc(F)cc2)CC1)c1ccccc1` [Example 79, (S)-carbamic acid 3-[4-(4-fluoro)-phenylpiperazin-1-yl]-3-oxo-1-phenyl-propyl ester]: the change in vivo at 30 mg/kg was -30% with male ICR mouse [1] and 29.3% with male ICR mouse [3]. For the same compound, the change in vivo at 10 mg/kg in the assay on male ICR mouse [2] is -5.1%. In the assay with male ICR mouse [4], the inhibition in vivo at 10 mg/kg was determined as 40.7%.
With `Cc1ccc(N2CCN(C(=O)CC(OC(N)=O)c3ccccc3)CC2)cc1C` (centres unmarked) [Example 20, carbamic acid 3-[4-(3,4-dimethyl-phenyl)-piperazin-1-yl]-3-oxo-1-phenyl-propyl ester], the change in vivo at 30 mg/kg in the assay on male ICR mouse [1] was -6.3%; with male ICR mouse [3], 45.4%. The change in vivo at 10 mg/kg in the assay with male ICR mouse [2] came out at 45.4%. Also, the inhibition in vivo at 10 mg/kg in the assay with male ICR mouse [4] worked out at 14.6%.
Turning to `COc1ccc(N2CCN(C(=O)CC(OC(N)=O)c3ccc(C(F)(F)F)cc3)CC2)cc1OC` (centres unmarked) [Example 35, carbamic acid 3-[4-(3,4-dimethoxy-phenyl)-piperazin-1-yl]-3-oxo-1-(4-trifluoromethyl-phenyl)-propyl ester; hydrochloride], the change in vivo at 30 mg/kg was 64.3% in the assay on male ICR mouse [1] and 32.8% in the assay with male ICR mouse [3]. Besides, the change in vivo at 10 mg/kg in the assay on male ICR mouse [2] worked out at 44%. In the assay on male ICR mouse [4], the inhibition in vivo at 10 mg/kg amounted to 33.8%.
For the compound `NC(=O)O[C@@H](CC(=O)N1CCN(c2ccc(O)cc2)CC1)c1ccccc1` [Example 84, (S)-carbamic acid 3-[4-(4-hydroxy)-phenylpiperazin-1-yl]-3-oxo-1-phenyl-propyl ester], the figures for the change in vivo at 30 mg/kg in the assay on male ICR mouse [1] and in the assay with male ICR mouse [3] were -37.5% and 13.5%, respectively. For the same compound, the change in vivo at 10 mg/kg with male ICR mouse [2] is 65.6%. The inhibition in vivo at 10 mg/kg with male ICR mouse [4] was 32%.
For `COc1ccc(N2CCN(C(=O)C[C@H](OC(N)=O)c3ccccc3)CC2)cc1` [Example 69, (S)-carbamic acid 3-[4-(4-methoxy-phenyl)-piperazin-1-yl]-3-oxo-1-phenyl-propyl ester], the change in vivo at 30 mg/kg in the assay with male ICR mouse [1] was -14.3%; with male ICR mouse [3], 22.9%. The change in vivo at 10 mg/kg with male ICR mouse [2] stood at 57.3%.
Turning to `NC(=O)OC(CC(=O)N1CCN(c2ccccc2)CC1)c1ccccc1[N+](=O)[O-]` (centres unmarked) [Example 42, carbamic acid 1-(2-nitro-phenyl)-3-oxo-3-(4-phenyl-piperazin-1-yl)-propyl ester], in the assay with male ICR mouse [1], the change in vivo at 30 mg/kg is 33.3%. For the same compound, in the assay with male ICR mouse [2], the change in vivo at 10 mg/kg was 27.3%.
As to `COc1ccc(N2CCN(C(=O)CC(OC(N)=O)c3ccc(C)cc3)CC2)cc1OC` (centres unmarked) [Example 8, carbamic acid 3-[4-(3,4-dimethoxy-phenyl)-piperazin-1-yl]-3-oxo-1-p-tolyl-propyl ester], in the assay with male ICR mouse [3], the change in vivo at 30 mg/kg is 10.9%. In the assay with male ICR mouse [4], the inhibition in vivo at 10 mg/kg worked out at 30.1%.
